The subject of one assay is Class-A GPCR 3. Put plainly: IP1 accumulation assay, Class-A GPCR 3 co-transfected with promiscuous Gαq (Gα16) in CHO-K1 cells. In kind it is cell-based, Aplysia californica.
The next assay has as its target T1, apVTR1 (Aplysia californica, UniProt A0ABM1ABB6).
T1 sequence (A0ABM1ABB6 1-470): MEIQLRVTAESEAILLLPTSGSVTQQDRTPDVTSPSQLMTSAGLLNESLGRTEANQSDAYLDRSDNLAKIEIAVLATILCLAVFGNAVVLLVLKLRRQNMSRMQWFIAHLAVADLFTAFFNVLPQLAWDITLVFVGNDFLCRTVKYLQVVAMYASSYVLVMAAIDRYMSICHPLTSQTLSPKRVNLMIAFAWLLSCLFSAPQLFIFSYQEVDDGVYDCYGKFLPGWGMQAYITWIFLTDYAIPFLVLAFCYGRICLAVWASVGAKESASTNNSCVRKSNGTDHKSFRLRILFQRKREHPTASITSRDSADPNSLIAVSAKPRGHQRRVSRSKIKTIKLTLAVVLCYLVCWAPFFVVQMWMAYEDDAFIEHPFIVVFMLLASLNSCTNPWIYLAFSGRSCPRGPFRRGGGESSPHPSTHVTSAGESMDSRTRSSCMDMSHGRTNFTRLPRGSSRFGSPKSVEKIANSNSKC
The assay can be described thus: cell-based. In kind it is cell-based. The conditions noted are these: for apVTR1 log[EC50]: log[EC50] with negative sign as printed, average, n = 3; for apVTR1 log[EC50] / activation of apVTR1 (IP1 response), in words: CHO-K1 cells, without promiscuous Gαq.

A further assay has as its system apVTR2. Put plainly: IP1 accumulation assay, apVTR2 transiently expressed in CHO-K1 cells. In kind it is cell-based, Aplysia californica. The conditions noted are these: for apVTR2 log[EC50]: log[EC50] with negative sign as printed, average.
Setting [1] is: co-transfected with promiscuous Gαq (Gα16), 10^-5 M vs 10^-10 M.
The mark [2] stands for this setting: n = 3, CHO-K1 cells, without promiscuous Gαq.
The mark [3] stands for this setting: co-transfected with promiscuous Gαq, 10^-5 M vs 10^-10 M (control).
The mark [4] stands for this setting: CHO-K1 cells, without promiscuous Gαq.
Where [5] appears, read: CHO-K1 cells, without promiscuous Gαq, dose-response 10^-12 M to 10^-4 M, n = 3.

Values joined by “and” are separate entries in the source; they are usually repeats but may differ in a detail not shown here. Identical values can stand only once. “Also recorded” adds a separate entry of the source. Like-named read-outs stand apart in the source and are kept apart here. Bridge positions count the residues as written; N and C are the ends. Peptide text beside a SMILES is read from it. * marks the point of attachment. Acm = CC(=O)NC*

These results are taken from paper PMC10067623, “Characterization of an Aplysia vasotocin signaling system and actions of posttranslational modifications and individual residues of the ligand on receptor activity” (Frontiers in Pharmacology, 2023).

What is called EC50 is the midpoint of the concentration-response curve.

Take Urotensin II: in the assay with Class-A GPCR 3 (setting [1]), the “activation of Class-A GPCR 3 (IP1 response), in words” value is reported as “not responsive to any of these”.

Turning to `CC[C@H](C)[C@H](NC(=O)[C@H](Cc1ccccc1)NC(=O)[C@@H](N)CS)C(=O)N[C@@H](CCCNC(=N)N)C(=O)N[C@@H](CC(N)=O)C(=O)N[C@@H](CS)C(=O)N1CCC[C@H]1C(=O)N[C@@H](CCCCN)C(=O)NCC(=O)O` [apVT'-OH] (H-CFIRNCPKG-OH; N-terminus assumed), the EC50 at apVTR1 (apVTR1 EC50) was 2.2 µM; on apVTR1 (apVTR1 log[EC50]), 2 µM; in the assay on apVTR2, 2.2 µM. For the same compound, the “apVTR2 log[EC50]” value with apVTR2 (setting [2]) is listed as -5.6±0.18 M.

Take `CC[C@H](C)[C@@H]1NC(=O)[C@H](Cc2ccccc2)NC(=O)[C@@H](N)CSSC[C@@H](C(=O)N2CCC[C@H]2C(=O)N[C@@H](CCCCN)C(=O)N[C@@H](C)C(N)=O)NC(=O)[C@H](CC(N)=O)NC(=O)[C@H](CCCNC(=N)N)NC1=O` [[Ala^9]apVT] (H-CFIRNCPKA-NH2; disulfide 1-6): the EC50 on apVTR1 (apVTR1 EC50) and on apVTR1 (apVTR1 log[EC50]) was 1 µM each time.

For `CC[C@H](C)[C@H](NC(=O)[C@H](Cc1ccccc1)NC(=O)[C@@H](N)CSCNC(C)=O)C(=O)N[C@@H](CCCNC(=N)N)C(=O)N[C@@H](CC(N)=O)C(=O)N[C@@H](CSCNC(C)=O)C(=O)N1CCC[C@H]1C(=O)N[C@@H](CCCCN)C(=O)NCC(N)=O` [[Cys(Acm)^1,6]apVT] (H-C(Acm)FIRNC(Acm)PKG-NH2; N-terminus and C-terminus assumed), the 50% effective concentration (EC50) is 12 µM on apVTR1 (apVTR1 EC50), 12.6 µM on apVTR1 (apVTR1 log[EC50]) and 47 µM with apVTR2. Further, the “apVTR2 log[EC50]” value in the assay on apVTR2 (setting [2]) is on record as -4.3±0.57 M.

In the case of `CC[C@H](C)[C@@H]1NC(=O)[C@H](Cc2ccccc2)NC(=O)[C@@H](N)CSSC[C@@H](C(=O)N2CCC[C@H]2C(=O)N[C@@H](CCCCN)C(=O)NCC(N)=O)NC(=O)[C@H](CC(N)=O)NC(=O)[C@H](CCCNC(=N)N)NC1=O` [apVT, Aplysia vasotocin] (H-CFIRNCPKG-NH2; disulfide 1-6; N-terminus assumed), the “apVTR1 EC50” value at apVTR1 turned out to be 0.065 µM. The EC50 was 0.07 µM on apVTR1 (apVTR1 EC50); 0.077 µM and 0.07 µM in the assay with apVTR2. Moreover, the “screening of apVTR1 activation (IP1 response), in words” value at apVTR1 (setting [3]) is “responded”. In addition, the “apVTR1 log[EC50]” value on apVTR1 is listed as -7.2±0.036 M; on apVTR1 (listed as apVT'), -7.2±0.07 M. Besides, the “screening of apVTR2 activation (IP1 response), in words” value with apVTR2 (setting [3]) is listed as “responded”. The “apVTR2 log[EC50]” value is reported as -7.1±0.18 M with apVTR2 (setting [2]) and -7.2±0.15 M in the assay on apVTR2 (n = 3, CHO-K1 cells, without promiscuous Gαq, listed as apVT'). The “activation of Class-A GPCR 3 (IP1 response), in words” value in the assay on Class-A GPCR 3 is “no response; also recorded: not responsive”.

Consider `CC[C@H](C)[C@H](NC(=O)[C@H](Cc1ccccc1)NC(=O)[C@@H](N)CS)C(=O)N[C@@H](CCCNC(=N)N)C(=O)N[C@@H](CC(N)=O)C(=O)N[C@@H](CSCNC(C)=O)C(=O)N1CCC[C@H]1C(=O)N[C@@H](CCCCN)C(=O)NCC(N)=O` [[Cys(Acm)^6]apVT] (H-CFIRNC(Acm)PKG-NH2; N-terminus assumed), for which the EC50 at apVTR1 (apVTR1 EC50) was 1.5 µM; at apVTR1 (apVTR1 log[EC50]), 1.58 µM; with apVTR2, 7.8 µM. For the same compound, the “apVTR2 log[EC50]” value in the assay on apVTR2 (setting [2]) was -5.1±0.21 M.

Turning to `CC[C@H](C)[C@@H]1NC(=O)[C@H](Cc2ccccc2)NC(=O)[C@@H](N)CSSC[C@@H](C(=O)N2CCC[C@H]2C(=O)N[C@@H](CCCCN)C(=O)NCC(=O)O)NC(=O)[C@H](CC(N)=O)NC(=O)[C@H](CCCNC(=N)N)NC1=O` [apVT-OH] (H-CFIRNCPKG-OH; disulfide 1-6; N-terminus assumed), the EC50 at apVTR1 (apVTR1 EC50) is 3.5 µM; at apVTR1 (apVTR1 log[EC50]), 3.16 µM; in the assay with apVTR2 it was 1 µM. The “apVTR2 log[EC50]” value with apVTR2 (setting [2]) was -6.0±0.06 M.

For the compound `C[C@@H]1NC(=O)[C@H](Cc2ccccc2)NC(=O)[C@@H](N)CSSC[C@@H](C(=O)N2CCC[C@H]2C(=O)N[C@@H](CCCCN)C(=O)NCC(N)=O)NC(=O)[C@H](CC(N)=O)NC(=O)[C@H](CCCNC(=N)N)NC1=O` [[Ala^3]apVT] (H-CFARNCPKG-NH2; disulfide 1-6), the figures for the EC50 on apVTR1 (apVTR1 EC50) and at apVTR1 (apVTR1 log[EC50]) were 30 µM and 31.6 µM, respectively.

On to Vasopressin [reference compound], for which the “activation of apVTR1 (IP1 response), in words” value in the assay with apVTR1 is listed as “no effects”. For the same compound, the “activation of apVTR2 (IP1 response), in words” value in the assay with apVTR2 (setting [4]) is “no effects”. Moreover, the “activation of Class-A GPCR 3 (IP1 response), in words” value in the assay with Class-A GPCR 3 (setting [1]) is listed as “none of the four peptides had any effects”; with Class-A GPCR 3 (co-transfected with promiscuous Gαq (Gα16), 10^-5 M vs 10^-10 M, listed as Vasopressin), “do not affect”.

Turning to `CC[C@H](C)[C@@H]1NC(=O)[C@H](Cc2ccccc2)NC(=O)[C@@H](N)CSSC[C@@H](C(=O)N[C@@H](C)C(=O)N[C@@H](CCCCN)C(=O)NCC(N)=O)NC(=O)[C@H](CC(N)=O)NC(=O)[C@H](CCCNC(=N)N)NC1=O` [[Ala^7]apVT] (H-CFIRNCAKG-NH2; disulfide 1-6), the EC50 on apVTR1 (apVTR1 EC50) was 1.1 µM; at apVTR1 (apVTR1 log[EC50]), 1 µM.

Regarding `CC[C@H](C)[C@@H]1NC(=O)[C@H](Cc2ccccc2)NC(=O)[C@@H](N)CSSC[C@@H](C(=O)N2CCC[C@H]2C(=O)N[C@@H](CCCCN)C(=O)NCC(N)=O)NC(=O)[C@H](C)NC(=O)[C@H](CCCNC(=N)N)NC1=O` [[Ala^5]apVT] (H-CFIRACPKG-NH2; disulfide 1-6), the EC50 on apVTR1 (apVTR1 EC50) was 6 µM; on apVTR1 (apVTR1 log[EC50]) it was 6.31 µM.

Consider `CC[C@H](C)[C@H](NC(=O)[C@H](Cc1ccccc1)NC(=O)[C@@H](N)CSCNC(C)=O)C(=O)N[C@@H](CCCNC(=N)N)C(=O)N[C@@H](CC(N)=O)C(=O)N[C@@H](CS)C(=O)N1CCC[C@H]1C(=O)N[C@@H](CCCCN)C(=O)NCC(N)=O` [[Cys(Acm)^1]apVT] (H-C(Acm)FIRNCPKG-NH2; N-terminus assumed), for which the 50% effective concentration (EC50) is 2.9 µM on apVTR1 (apVTR1 EC50), 3.16 µM at apVTR1 (apVTR1 log[EC50]) and 7.8 µM in the assay with apVTR2. In addition, the “apVTR2 log[EC50]” value with apVTR2 (setting [2]) is reported as -5.1±0.21 M.

Regarding `CC[C@H](C)[C@@H]1NC(=O)[C@H](Cc2ccccc2)NC(=O)[C@@H](N)CSSC[C@@H](C(=O)N2CCC[C@H]2C(=O)N[C@@H](C)C(=O)NCC(N)=O)NC(=O)[C@H](CC(N)=O)NC(=O)[C@H](CCCNC(=N)N)NC1=O` [[Ala^8]apVT] (H-CFIRNCPAG-NH2; disulfide 1-6), the 50% effective concentration (EC50) on apVTR1 (apVTR1 EC50) was 1.5 µM; at apVTR1 (apVTR1 log[EC50]), 1.58 µM.

As for `CC[C@H](C)[C@@H]1NC(=O)[C@H](Cc2ccc(O)cc2)NC(=O)[C@@H](N)CSSC[C@@H](C(=O)N2CCC[C@H]2C(=O)N[C@@H](CC(C)C)C(=O)NCC(N)=O)NC(=O)[C@H](CC(N)=O)NC(=O)[C@H](CCC(N)=O)NC1=O` [Oxytocin, reference compound], the “activation of apVTR1 (IP1 response), in words” value at apVTR1 was “weak activation effect”. The EC50 at apVTR1 (apVTR1 EC50) is 16 µM; at apVTR1 (apVTR1 log[EC50]), 15.8 µM; in the assay on apVTR2 (setting [5]), 3.6 µM. Besides, the “activation of apVTR2 (IP1 response), in words” value in the assay with apVTR2 (setting [4]) is reported as “weak activation effect”. Further, the “apVTR2 log[EC50]” value in the assay on apVTR2 (setting [2]) is -5.4±0.016 M. The “activation of Class-A GPCR 3 (IP1 response), in words” value with Class-A GPCR 3 (setting [1]) is “do not affect; also recorded: none of the four peptides had any effects”.

For the compound AstC, in the assay with Class-A GPCR 3 (setting [1]), the “activation of Class-A GPCR 3 (IP1 response), in words” value is recorded as “not responsive to any of these”.

Turning to `CC(C)[C@@H]1NC(=O)[C@H](Cc2ccccc2)NC(=O)[C@@H](N)CSSC[C@@H](C(=O)N2CCC[C@H]2C(=O)N[C@H](C(=O)NCC(N)=O)[C@@H](C)O)NC(=O)[C@H](CC(N)=O)NC(=O)[C@H](CCCNC(=N)N)NC1=O` [Annetocin, reference compound] (H-CFVRNCPTG-NH2; disulfide 1-6), the values for the EC50 on apVTR1 (apVTR1 EC50), at apVTR1 (apVTR1 log[EC50]) and in the assay with apVTR2 (setting [5]) were 5.6 µM, 6.31 µM and 1.1 µM, respectively. Moreover, the “apVTR2 log[EC50]” value with apVTR2 (setting [2]) is -6.0±0.20 M. For the same compound, the “activation of Class-A GPCR 3 (IP1 response), in words” value with Class-A GPCR 3 (setting [1]) is given as “do not affect; also recorded: none of the four peptides had any effects”.
